This is an account of results in PubChem BioAssay AID1996.

Converted amounts (≈) assume the structure as drawn. Non-standard residues stand in square brackets, D forms with d. Residues, ends and D or L forms follow the SMILES beside them. *: point of attachment. Tic = O=C(O)[C@@H]1Cc2ccccc2CN1; Boc = CC(C)(C)OC(=O)*

For the data set the following is noted: buffer; pH 7.4; 200.0 µM.
What is called kinetic solubility is the concentration staying in solution when a stock, usually in DMSO, is diluted into the medium. `COc1cc2sc(NC(=O)c3ccco3)nc2cc1Cl` displayed a solubility (kinetic) of under 0.3 µg/mL.
In the case of `CCCCn1c(N)c(N(CC)C(=O)c2ccccc2C)c(=O)[nH]c1=O` it was 49.5 µg/mL (≈ 144 µM); in that of `OCCC1CN(CC2CCCCC2)CCN1CC1CCCCC1` (centres undefined), over 48.4 µg/mL; in that of `COc1ccccc1C1N=C(c2ccccc2C)NO1` (centres undefined), 24 µg/mL (≈ 89.4 µM).
In the case of `O=C(O)C1CCCCC1C(=O)NCc1ccccn1` (centres undefined) it was over 39.3 µg/mL; in that of `C=CCOc1c(Br)cc(/C=C2/C(=O)ON=C2C)cc1OC`, 44.3 µg/mL (≈ 126 µM).
The result for `O=C(O)c1cc2cc(Oc3ccccc3)ccc2[nH]1` reads over 38 µg/mL; that for `O=C(O)c1ccc(NC(=O)c2ccc(COc3ccccc3)o2)cc1`, over 50.6 µg/mL.
`CCC(=O)c1c[nH]c(C(=O)NCc2cccc(C(F)(F)F)c2)c1`: the kinetic solubility is under 0.4 µg/mL.
The result for `N#Cc1nc(-c2ccccc2F)oc1N1CCCCC1` reads 2.3 µg/mL (≈ 8.48 µM); that for `Cc1cc(C)c(OCCN(C)C)c(Cl)c1.O=C(O)C(=O)O`, over 47.7 µg/mL.
In turn, `O=[N+]([O-])/C(C(Cl)=C(Cl)Cl)=C1\Nc2ccccc2O1` had a solubility (kinetic) of over 46.1 µg/mL.
In turn, `COc1ccc(CCNC(=O)COC(=O)c2ccccn2)cc1` registered a solubility (kinetic) of over 47.2 µg/mL.
The result for `COc1ccc2c(CC(=O)Nc3ccc(OC)nc3)coc2c1` reads 14.8 µg/mL (≈ 47.4 µM); that for `Fc1cccc(F)c1/C=N/N1CCOCC1`, over 33.9 µg/mL.
The result for `COc1ccc(C(=O)NCCc2ccccc2)cc1OC` reads 40.1 µg/mL (≈ 141 µM).
As to `CCn1c(=O)c([N+](=O)[O-])c(NCC2CCCO2)c2ccccc21` (centres undefined), the solubility (kinetic) came out at 47.5 µg/mL (≈ 150 µM).
Compound `COCCSc1ccccc1C(=O)Nc1cc(C)cc(C)c1` showed a kinetic solubility of 41.2 µg/mL (≈ 131 µM).
In the case of `O=C(Nc1ccc(NC(=O)c2cccnc2)cc1)c1ccccc1` it was 0.8 µg/mL (≈ 2.52 µM).
In the case of `CN(C)CCCN(C(=O)c1ccco1)c1nc2ccc(F)cc2s1.Cl` it was 55 µg/mL.
In the case of `CCN(CCS(=O)(=O)c1ccc(Cl)cc1)Cc1nc2ccccc2c(=O)[nH]1` it was over 60.9 µg/mL; in that of `CCN(CC)c1cc(Cl)nc(N)n1`, 25.9 µg/mL (≈ 129 µM).
Turning to `Clc1ccc(CN2CCSCC2)c(Cl)c1`, the solubility (kinetic) worked out at 0.9 µg/mL (≈ 3.43 µM).
The result for `CC(C)(C)OC(=O)N1Cc2ccccc2C[C@H]1C(=O)N1CCC[C@H]1C(=O)O` (Boc-[Tic]-Pro-OH) reads 49.9 µg/mL (≈ 133 µM).
The result for `COc1ccc(-n2c(C)c(C(=O)O)c3cc(OC)c4ccccc4c32)cc1` reads under 0.8 µg/mL; that for `Cc1cc(C(=O)N2CC(C)CC(C)C2)c(C)o1` (centres undefined), 30.1 µg/mL (≈ 128 µM); that for `CC(=O)c1cc(CN2CCN(CC=C(C)C)C(CCO)C2)cs1` (centres undefined), over 50.5 µg/mL.
The result for `NC(=O)CN1CCN(c2cccc(Cl)c2)CC1` reads 33.9 µg/mL (≈ 134 µM); that for `CCC(C)Nc1nc(N)c([N+](=O)[O-])c(NC2CCCCC2)n1` (centres undefined), under 0.1 µg/mL.
The compound `C[C@@H](NC(=O)[C@@H]1Cc2ccccc2CN1)C(=O)NC1CCCC1` yielded a solubility (kinetic) of over 47.3 µg/mL.
In the case of `CCCCn1c(O)c(C(C)=Nc2ccc3c(c2)CCC3)c(=O)[nH]c1=O` it was under 0.2 µg/mL; in that of `COc1cc(OC)cc(C(=O)OCC(=O)N2CCCC2)c1`, over 44 µg/mL.
The result for `Cc1ccsc1C(=O)N[C@@H](C)c1nnc2ccccn12` reads over 43 µg/mL.
As for `COc1ccc(-n2ccc(=O)c(C(=O)O)n2)cc1`, the kinetic solubility is over 36.9 µg/mL.
In the case of `CN(Cc1ccccc1)C(=O)COc1ccccc1Cl` it was 40 µg/mL (≈ 138 µM); in that of `COc1ccc(NC(=O)COC(=O)c2ccc3c(c2)OCO3)c(OC)c1`, 1.9 µg/mL (≈ 5.29 µM).
Turning to `CN(C(=S)NC(=O)c1ccc(F)cc1)C1CCCCC1`, the solubility (kinetic) came out at 8.8 µg/mL (≈ 29.9 µM).
In the case of `CSc1ncccc1C(=O)N1CCN(C(=O)c2ccccc2)CC1` it was over 51.2 µg/mL.
In the case of `CCC1CCC(N2CCN(c3cccc(OC)c3)CC2)CC1` (centres undefined) it was 32.6 µg/mL (≈ 108 µM).
The result for `Cc1noc(NC(=O)c2ccc(Cl)cc2)c1Cl` reads 28.2 µg/mL (≈ 104 µM); that for `COc1ccc(Cc2nc(-c3cccnc3)no2)cc1OC`, 41 µg/mL (≈ 138 µM).
The compound `COC(=O)c1ccc(NC(=O)N(c2ccccc2)c2ccccc2)cc1` came in with a solubility (kinetic) of 0.7 µg/mL (≈ 2.02 µM).
`O=C1CN(C(=O)/C=C/c2ccc(Br)cc2)CCN1` yielded a solubility (kinetic) of 41.8 µg/mL (≈ 135 µM).
In turn, `COc1ccc(NC2c3ccccc3C(=O)N2c2cccnc2)cc1` (centres undefined) displayed a solubility (kinetic) of over 49.7 µg/mL.
The result for `Cc1csc(NC(=O)c2cc(C)nc3ccccc23)n1` reads 30.7 µg/mL (≈ 108 µM).
In the case of `CN1CCC(NC(=O)c2ccncc2)CC1` it was 29.4 µg/mL (≈ 134 µM).
`O=C(Nc1ccc(F)cc1F)c1ccc2c(c1)OCCO2`: the kinetic solubility was 14 µg/mL (≈ 48.1 µM).
As to `O=C(Cn1c(CO)nc2ccccc21)NCCc1ccccc1`, the solubility (kinetic) is over 46.4 µg/mL.
The result for `CCOCCn1c(=O)c2c(nc3n2CCCN3Cc2ccccc2)n(C)c1=O` reads over 57.5 µg/mL.
In the case of `CCOc1ccc(NC(=O)COc2ccc(S(=O)(=O)N3CCOCC3)cc2)cc1` it was 2.9 µg/mL (≈ 6.9 µM); in that of `COCC(C)n1c(SCC(=O)NC(=O)NCc2ccccc2)nc2ccccc2c1=O` (centres undefined), 2.7 µg/mL (≈ 6.13 µM).
As for `Cc1cc(NC(=O)C(=O)c2cn(C)c3ccccc23)no1`, the kinetic solubility was determined as 0.6 µg/mL (≈ 2.12 µM).
The result for `COc1ccc(C)cc1-n1c(C)cc(C=O)c1C` reads 36.4 µg/mL (≈ 150 µM); that for `CCOC(=O)C(=O)Nc1ccccc1C(=O)OCC`, over 39.8 µg/mL.
The result for `COc1cccc(C2(C#N)CCN(C)CC2)c1` reads over 34.5 µg/mL; that for `O=C(CCNC(=O)c1ccccc1)Nc1ccc(S(=O)(=O)Nc2ncccn2)cc1`, over 63.8 µg/mL.
Compound `Nc1nc(Cl)cc(Oc2ccc([N+](=O)[O-])cc2)n1` gave a kinetic solubility of 1.5 µg/mL (≈ 5.63 µM).
In the case of `CC1(C)Cc2cccc(OCC(=O)NCc3ccccc3F)c2O1` it was over 49.4 µg/mL; in that of `Cc1ccc(S(=O)(=O)NCCCn2ccnc2)cc1C(=O)NC(C)C`, over 54.7 µg/mL.
In the case of `O=C(Nc1ccccc1)C1CCOC1=O` (centres undefined) it was 26.3 µg/mL (≈ 128 µM).
The result for `CCc1cc2c(SC(C)C(=O)NC3CCCC3)ncnc2s1` (centres undefined) reads 34.4 µg/mL (≈ 103 µM); that for `COCCn1c(SCc2ccccc2)nc2c1c(=O)[nH]c(=O)n2C`, over 52 µg/mL.
As to `CC(=O)c1ccc(N2CCN(C(=S)NCCCN(C)C)CC2)cc1`, the kinetic solubility was over 52.3 µg/mL.
Compound `Cc1ccccc1C(=O)N1c2ccccc2OCC1C(C)(C)C` (centres undefined) returned a kinetic solubility of under 0.7 µg/mL.
In the case of `O=C(Cn1nc(C(F)F)cc1C1CC1)N1CCCC1` it was over 40.4 µg/mL.
Take `COc1ccccc1CC(=O)Nc1cccc2ccccc12`: the kinetic solubility came to 2.5 µg/mL (≈ 8.58 µM).
Consider `O=C(c1ccc(Br)cc1)N(c1ccccn1)C1CCCCC1`, for which the solubility (kinetic) was 16.5 µg/mL (≈ 45.9 µM).
In the case of `COCCCNc1nc(N)c([N+](=O)[O-])c(N2CCCCCC2)n1` it was 47.4 µg/mL (≈ 146 µM).
In the case of `CN1C(=O)N(C)C(=O)C2(Cc3cc([N+](=O)[O-])ccc3N(C)C2)C1=O`, the solubility (kinetic) stood at 5.3 µg/mL (≈ 15.9 µM).
Turning to `CCOc1ccc(NC(=S)N2c3ccccc3CC2C)cc1` (centres undefined), the solubility (kinetic) was 4.4 µg/mL (≈ 14.1 µM).
In turn, `Cc1ccc(NC(=O)CSc2nc(C)c(Cc3ccccc3)c(=O)[nH]2)cc1` came in with a solubility (kinetic) of 1.4 µg/mL (≈ 3.69 µM).
With `CC1(C)NC(=O)N(CC(=O)OCC(=O)c2ccc(Br)s2)C1=O`, the solubility (kinetic) was over 58.4 µg/mL.
The result for `COc1ccccc1CC(=O)NCCc1ccccc1` reads over 40.4 µg/mL; that for `O=C(COC(=O)c1cc(=O)[nH]c2ccccc12)NC1CCCCC1`, 4.7 µg/mL (≈ 14.3 µM).
